Two molecules from patent US6407099B1, “Arylpiperidinopropanol and arylpiperazinopropanol derivatives and pharmaceuticals containing the same” (Suntory Limited, priority 1997, dated 2002) can be followed below.

One data set in a line: Acute toxicity test. The conditions noted are these: male, mouse, in vivo, iv, ddY mice, death rate up to 24 hours after administration. The protocol: A pharmaceutical preparation was administered intravenously to ddY mice (male, 6 weeks old). The 50% lethal dosage LD50 of the acute toxicity was calculated by an ordinary method from the death rate up to 24 hours after administration.

The target of a further data set is T1, Dopamine D2 receptor (Rattus norvegicus, UniProt P61169).
T1 construct: membrane fraction prepared from the striatum of Wistar male rats; from tissue; host or cells: rat striatum membrane fraction
T1 sequence (P61169 whole entry): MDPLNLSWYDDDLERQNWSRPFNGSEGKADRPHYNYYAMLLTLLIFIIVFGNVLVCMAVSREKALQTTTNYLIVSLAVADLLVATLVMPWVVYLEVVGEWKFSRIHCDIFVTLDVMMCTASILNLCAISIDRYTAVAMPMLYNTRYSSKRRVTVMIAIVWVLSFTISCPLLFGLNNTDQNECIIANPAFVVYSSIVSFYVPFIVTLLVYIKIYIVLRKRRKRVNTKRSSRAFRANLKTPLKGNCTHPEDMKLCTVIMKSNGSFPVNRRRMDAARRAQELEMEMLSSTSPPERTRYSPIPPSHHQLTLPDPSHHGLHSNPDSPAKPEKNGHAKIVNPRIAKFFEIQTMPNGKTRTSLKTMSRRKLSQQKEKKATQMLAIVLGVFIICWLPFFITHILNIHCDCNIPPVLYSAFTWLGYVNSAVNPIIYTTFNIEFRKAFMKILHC
Description: Dopamine D2 receptor blocking action ([^3H] raclopride, striatum membrane fraction). The format is binding, Wistar male rats. As to conditions: 1.0 nM [^3H] raclopride, 25° C., 1 hour. The protocol:
Dopamine D2 Receptor Blocking Action
57 μl of the membrane fraction prepared from the striatum of Wistar male rats (6 weeks old) was incubated together with the compound and 1.0 nM [^3H] raclopride in a buffer at 25° C. for 1 hour. A GF/C glass filter (0.1% polyethylene imine treatment) was used for B/F separation. A beta plate was used for measurement of the radioactivity to evaluate the effect of the compound.

For the next data set, the system named is Sodium channel. Description: Inhibitory effect of veratrizine-induced sodium channel activity (synaptozome membrane potential, Rhodamine 6G). The format is biochemical, Wistar rats. The conditions noted are these: compound 0.1 μM; rat brain synaptozomes, veratrizine-induced depolarization. The source says:
Inhibitory Effect of Veratrizine-induced Sodium Channel Activity

A further data set deals with DBA/2N type mice. The experiment in a line: Audiogenic seizure suppressing effect. Type of data set: in vivo. The conditions noted are these: Mus musculus, ip, 20 min, compound 10 mg/kg, i.p.; audio stimulus after 20 minutes; seizure score; read-out: Antiseizure effect (suppression rate %). The protocol:
Audiogenic Seizure Suppressing Effect
The audiogenic seizure suppressing effect of the compounds was evaluated by the method of Sarro et al. [G. B. De Sarro et al., Br. J. Pharmacol., 93, 247 (1988)]. That is, the compound dissolved in 10% 2-hydroxypropyl-β-cyclodextrin was administered intraperitoneally to DBA/2N type mice (male, 3 weeks old). After 20 minutes, a supersonic washer was used to apply audio stimulus of at least 90 dB for 1 minute. The wild running (WR), clonic seizures (clonus), tonic seizures (tonus), and the respiratory arrest (RA) were observed. The seizure suppressing effect was evaluated from the rate of suppression of the average value of the seizure score found as 0=no response, 1=WR, 2=clonus, 3=tonus, and 4=RA.

The subject of the next data set is lipid peroxidation. Description: Lipid peroxidation suppressing effect (brain membrane preparation, malonaldehyde and 4-hydroxyalkenals). The conditions noted are these: rat brain membrane preparation, 37° C., 30 minutes. Type of data set: biochemical, Wistar rats. As to the method: Lipid Peroxidation Suppressing Effect
The whole brains of Wistar rats (10 weeks old, male) were excised and homogenized in the 10 times volumes of 50 mM phosphate-buffered solution (pH=7.4) (hereinafter referred to as PBS). The centrifuged supernatent was further diluted fourfold and the result was used as the brain membrane preparation. The membrane preparation was incubated in the presence of vehicle (0.5% DMSO) or compound at 37° C. for 30 minutes and an automatic oxidation reaction promoted. The reaction was stopped by 35% perchloric acid, then the total of the main decomposition products of the peroxidized lipids present in the centrifuged supernatent, that is, malonaldehyde and 4-hydroxyalkenals, was measured using a BIOXYTECH®/LPO-586™ peroxidized lipid colorimetric assay kit (OXIS International, Inc.) and used as an indicator of the lipid peroxidation.

The subject of another data set is T-type Ca^2+ channel. Description: T-type calcium channel inhibitory effect (whole-cell patch clamp, hippocampal CA1 pyramidal cells). Type of data set: cell-based, Wistar rats. The conditions noted are these: rat hippocampal CA1 pyramidal cells; peak current after 1 minute of application. The protocol: T-Type Calcium Channel Inhibitory Effect
The hippocampal CA1 pyramidal cells were isolated from Wistar rats (female, 1 week old) in according to the method reported by Takahashi et al. [K. Takahashi et al.; J. Pharmacol. Exp. Ther., 256, 169 (1991)] and the T-type calcium current was measured under conditions of a fixed membrane potential using the whole-cell configuration of the patch clamp technique. The effects of the compounds were evaluated from the rate of suppression of the peak current after 1 minute of application using the concentration clamp method.

pIC50: −log10 of the molar value.

In turn, `COc1ccc(N)cc1OC[C@@H](O)CN1CCC(c2ccc(Oc3ccccc3)cc2)CC1` [Compound 41, (2S)-1-[(5-amino-2-methoxy)phenoxy]-3-[4-(4-phenoxyphenyl)piperidin-1-yl]-2-propanol] returned an LD50 at 24 h in “Acute toxicity test” of 36.7 mg/kg. Besides, the pIC50 on Dopamine D2 receptor is 4.96; in the data set with lipid peroxidation it was 6.06; with T-type Ca^2+ channel, 5.40. Besides, the “Anti-veratrizine effect (inhibiting rate %)” value with Sodium channel amounted to 22.1%. Moreover, in the data set on DBA/2N type mice, the inhibition in vivo at 10 mg/kg turned out to be 60%.

For the molecule `Cc1cc(OC[C@@H](O)CN2CCC(c3ccc(Cc4ccc(F)cc4)cc3)CC2)c(C)c(C)c1N` [Compound 27, (2S)-1-[(4-amino-2,3,5-trimethyl)phenoxy]-3-[4-(4-(4-fluorophenyl)methylphenyl)piperidin-1-yl]-2-propanol], the pIC50 against Dopamine D2 receptor was 5.20; in the data set with lipid peroxidation, 6.34. Besides, the “Anti-veratrizine effect (inhibiting rate %)” value in the data set with Sodium channel worked out at 32.1%. In addition, in the data set on DBA/2N type mice, the inhibition in vivo at 10 mg/kg was determined as 55%.
